# Measured values published in article PMC3530466, “Recombinant Expression of Margatoxin and Agitoxin-2 in Pichia pastoris: An Efficient Method for Production of KV1.3 Channel Blockers” (PLoS ONE, 2012).
# Bridge positions count the residues as written; N and C are the ends. Ends that are not written are not given here.
# Key:
# human T lymphocytes = experiment: Proliferation of T lymphocytes, [3H] thymidine incorporation; format: cell-based; conditions: freshly-isolated human T lymphocytes, 60 ng/ml anti-CD3 antibody (OKT3), pre-incubated 45 min at 37°C, cultured 72 h, [3H] thymidine last 16–18 h; three independent experiments with cells from different donors
# Procedure: (§1) L929 mouse fibroblast cells stably expressing mouse KV1.1 or mouse KV1.3 channels were kind gifts from Dr. George Chandy (University of California, Irvine). The cells were maintained in DMEM medium (Invitrogen, Carlsbad, CA, USA) supplemented with 10 IU/ml penicillin, 0.1 mg/ml streptomycin, 2 mM L-glutamine, 10% heat-inactivated fetal bovine serum, and 0.5 mg/ml G418 (EMD Chemicals, Gibbstown, NJ, USA). Freshly prepared buffy coats were purchased from the Gulf Coast Regional Blood Center (Houston, TX, USA) under a Baylor College of Medicine Institutional Review Board-approved protocol. Mononuclear cells were isolated from the buffy coats using Histopaque-1077 gradients (Sigma, St Louis, MI, USA) and used immediately or stored frozen in liquid nitrogen.
# Mononuclear cells (10^6/ml) were plated into 96-well microplates and pre-incubated with peptidic KV1.3 blockers for 45 min at 37°C in RPMI medium (Invitrogen) supplemented with 100 IU/ml penicillin, 0.1 mg/ml streptomycin, 2 mM L-glutamine, 1 mM sodium pyruvate, 1% non-essential amino acids, 1% RPMI vitamins, […] β-mercaptoethanol, and 1% heat-inactivated fetal bovine serum. […] [^3H] thymidine incorporation into the DNA of proliferating cells was measured using a β-scintillation counter (Beckman Coulter, Brea, CA, USA).
# [1] = target: T1, mouse KV1.3 (mKV1.3) channels stably expressed in L929 cells (Mus musculus, UniProt P16390); experiment: Inhibition of mKV1.3 currents, whole-cell patch clamp; format: cell-based; conditions: room temperature, each data point mean of 3–5 determinations
# T1 construct: expressed in transfected cells
# Procedure: as §1
# (§2) Experiments were conducted at room temperature using the whole-cell patch-clamp technique, as described previously. […] The bath solution contained (in mM): 160 NaCl, 4.5 KCl, 2 CaCl2, 1 MgCl2, 10 HEPES, pH 7.2, 300 mOsm. KV channel currents were elicited every 30 s by 200-ms depolarizing pulses from a holding potential of –80 mV to 40 mV. K d values and Hill coefficients were determined by fitting the Hill equation to the reduction of peak current measured at 40 mV.
# [2] = target: T2, mouse KV1.1 (mKV1.1) channels stably expressed in L929 cells (Mus musculus, UniProt P16388); experiment: Inhibition of mKV1.1 currents, whole-cell patch clamp; format: cell-based; conditions: room temperature, 200-ms pulses from -80 mV to 40 mV every 30 s, Hill fit to reduction of peak current at 40 mV, each data point mean of 3–5 determinations
# T2 construct: expressed in transfected cells
# Procedure: as §1, §2
# KV1.3 = conditions: cited from earlier work; for potency of native toxin on KV1.3: native toxins, ref [31]; for block of KV1.3 channels: ref [22], [30], [31]
# Excerpt: Voltage-gated potassium (KV) channels are expressed in a wide range of cell types and tissues where they play key roles in physiological processes such as cell excitability, muscle contraction, and regulation of cardiac function. KV channels are composed of four α subunits that together form a functional channel. There are […] subfamilies of KV channels, with KV1.3 being one of eight subtypes in the KV1.x subfamily. […] We therefore measured the ability of rAgTx2 and rMgTx to block mouse KV1.3 (mKV1.3) and mouse KV1.1 (mKV1.1) channels stably expressed in L929 cells. […] The recombinant rAgTx2 and rMgTx inhibited mKV1.3 with simi ... || KV channels have diverse physiological functions; they play important roles in cell excitability, muscle contraction, regulation of neuronal and cardiac electrical functions, and propagation of action potentials. […] This has led to the hypothesis that compounds that selectively target KV1.3 channels could be used to treat autoimmune diseases. Consistent with this idea, ... || (+ 1 further places)
# [3] = tested on: acid sensing ion channel 1a; conditions: ref [49]; cited from earlier work
# Excerpt: Recombinant production is the most cost-effective method for producing disulfide-rich peptides. The most common host for heterologous expression of venom peptides is E. coli, [47] but this often necessitates oxidative refolding of the peptides as the redox environment of the E. coli cytoplasm is not favorable for disulfide-bond formation. Higher yields of correctly folded toxin can often be obtained by exporting the peptides into periplasm of E. coli, where the cellular machinery for disulfide-bond formation is located [17]–[19]; however, the overall yield of recombi ...
# T lymphocytes = conditions: native toxins; ref [33], [34]; read-out: IC50 range previously described, T lymphocyte proliferation; cited from earlier work
# Procedure: We next tested the ability of each recombinant peptides to block the proliferation of freshly-isolated human T lymphocytes, which are sensitive to KV1.3 channel blockers. […] These concentrations are within the range previously described for MgTx (∼5 nM) and AgTx2 (>5 nM), [34]. Thus the biological activities of rAgTx2 and rMgTx produced in P.pastoris are similar to the native toxins.
# human KV1.3 channel = conditions: by blocking the central ion-conducting pore; ref [21], [22], [43]; cited from earlier work
# Excerpt: Some α-KTxs are of significant interest because they potently block the human KV1.3 channel. […] However, despite their similar 3D fold and high sequence homology, the affinity of α-KTx toxins for KV1.3 varies over six orders of magnitude from picomolar to micromolar. Moreover, many of these toxins inhibit a number of different subtypes KV channels with high affinity, an undesirable attribute for peptides being considered for therapeutic use due to the ...
# KV1.1 = conditions: ref [22], [30], [31]; cited from earlier work
# Excerpt: We therefore measured the ability of rAgTx2 and rMgTx to block mouse KV1.3 (mKV1.3) and mouse KV1.1 (mKV1.1) channels stably expressed in L929 cells. […] The recombinant rAgTx2 and rMgTx inhibited mKV1.3 with simi ...
# [4] = 200-ms pulses from -80 mV to 40 mV every 30 s, Hill fit to reduction of peak current at 40 mV
# T1 sequence (P16390 whole entry): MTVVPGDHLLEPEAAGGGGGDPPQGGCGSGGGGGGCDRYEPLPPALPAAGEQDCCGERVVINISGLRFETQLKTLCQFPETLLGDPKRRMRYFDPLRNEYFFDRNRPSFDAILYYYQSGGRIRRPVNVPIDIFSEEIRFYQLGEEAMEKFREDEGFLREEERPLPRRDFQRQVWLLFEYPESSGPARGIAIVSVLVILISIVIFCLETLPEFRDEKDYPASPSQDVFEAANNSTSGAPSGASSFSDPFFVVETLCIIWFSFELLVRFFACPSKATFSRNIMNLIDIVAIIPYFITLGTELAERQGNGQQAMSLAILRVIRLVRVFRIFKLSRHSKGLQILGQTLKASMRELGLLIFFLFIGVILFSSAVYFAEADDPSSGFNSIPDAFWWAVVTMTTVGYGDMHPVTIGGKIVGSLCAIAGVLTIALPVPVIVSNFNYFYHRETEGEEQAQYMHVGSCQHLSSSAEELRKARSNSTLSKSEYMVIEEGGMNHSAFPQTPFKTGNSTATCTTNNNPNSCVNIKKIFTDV
# T2 sequence (P16388 whole entry): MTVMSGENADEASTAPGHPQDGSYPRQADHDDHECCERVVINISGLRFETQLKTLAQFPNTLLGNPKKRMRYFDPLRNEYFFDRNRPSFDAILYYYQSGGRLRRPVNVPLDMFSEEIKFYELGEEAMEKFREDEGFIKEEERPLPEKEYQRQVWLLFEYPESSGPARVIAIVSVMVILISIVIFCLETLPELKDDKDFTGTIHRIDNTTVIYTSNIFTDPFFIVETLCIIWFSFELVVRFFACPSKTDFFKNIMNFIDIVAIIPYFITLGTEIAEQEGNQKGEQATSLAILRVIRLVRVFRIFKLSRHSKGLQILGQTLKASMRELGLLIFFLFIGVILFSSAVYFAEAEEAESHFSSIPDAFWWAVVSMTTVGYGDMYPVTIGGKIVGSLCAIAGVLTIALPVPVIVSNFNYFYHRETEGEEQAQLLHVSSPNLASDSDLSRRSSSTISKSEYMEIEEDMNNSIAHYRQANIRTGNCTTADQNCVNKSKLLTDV
compound,measurement,setting,value
"CC[C@H](C)[C@@H]1NC(=O)[C@@H]2CSSC[C@@H]3NC(=O)[C@H](CCCCN)NC(=O)[C@H](CCCNC(=N)N)NC(=O)[C@H](CC(N)=O)NC(=O)[C@H](CCSC)NC(=O)[C@H](CSSC[C@H](NC(=O)[C@H](CO)NC(=O)[C@@H](NC(=O)[C@H](CC(N)=O)NC(=O)[C@@H](NC(=O)[C@@H]4CCCN4C(=O)[C@@H](NC(=O)CNC(=O)[C@H](Cc4c[nH]cn4)NC(=O)[C@H](Cc4c[nH]cn4)NC(=O)[C@H](Cc4c[nH]cn4)NC(=O)[C@H](Cc4c[nH]cn4)NC(=O)[C@H](Cc4c[nH]cn4)NC(=O)[C@H](Cc4c[nH]cn4)NC(=O)[C@H](Cc4ccccc4)NC(=O)[C@@H](N)CCC(=O)O)C(C)C)[C@@H](C)CC)C(C)C)C(=O)N[C@@H]([C@@H](C)O)C(=O)NCC(=O)N[C@@H](CO)C(=O)N4CCC[C@H]4C(=O)N[C@@H](CCC(N)=O)C(=O)N2)NC(=O)[C@H](CCCCN)NC(=O)CNC(=O)[C@H](Cc2ccccc2)NC(=O)[C@H](CCCNC(=N)N)NC(=O)[C@H](CCSC)NC(=O)CNC(=O)[C@H](C)NC(=O)[C@H](CC(=O)O)NC(=O)[C@H](CCCCN)NC(=O)[C@H](CSSC[C@@H](C(=O)N[C@H](C(=O)N2CCC[C@H]2C(=O)N[C@@H](CCCCN)C(=O)O)[C@@H](C)O)NC(=O)[C@H](Cc2c[nH]cn2)NC3=O)NC(=O)[C@@H]2CCCN2C(=O)[C@H](CCCCN)NC1=O [rAgTx2, recombinant agitoxin-2]",IC50,human T lymphocytes,~40 nM
same,IC50,[1]; [4],0.201 ± 0.039 nM
same,IC50,[2],0.144 ± 0.03 nM
"BmKTX: native peptide, parent of ADWX-1 (VGINVKCKHSGQCLKPCKDAGMRFGKCINGKCDCTPK; ends and bridges not checked; cysteine pairing not given here; UniProt Q9NII7 23-59, looked up)",IC50,KV1.3; ref [44],0.15 nM
"EFHHHHHHTIINVKCTSPKQCLPPCKAQFGQSAGAACMNGKCKCYPH (disulfide 15-37, 21-42, 25-44) [rMgTx-K28A]",IC50,"[1]; K28A mutant, Hill fit to peak current at 40 mV",216 ± 24 nM
"EFHHHHHHTIINVKCTSPKQCLPPCKAQFGQSAGAKCMNGKCKCYPH (disulfide 15-37, 21-42, 25-44) [rMgTx, recombinant margatoxin]",IC50,human T lymphocytes,~6 nM
same,IC50,[1]; [4],0.097 ± 0.003 nM
same,IC50,[2],0.396 ± 0.041 nM
"PcTx1 (EDCIPKWKGCVNRHGDCCEGLECWKRRRSFEVCVPKTPKT; ends and bridges not checked; cysteine pairing not given here; UniProt P60514 1-40, looked up)",block of acid sensing ion channel 1a,[3],potent blocker
agitoxin-2 [AgTx2],IC50,T lymphocytes,> 5 nM
same,potency of native toxin on KV1.3,KV1.3,200 pM
same,block of KV1.3 channels,KV1.3,picomolar concentrations
same,inhibition of KV1.3,human KV1.3 channel,potently inhibit KV1.3
same,block of KV1.1 channels,KV1.1,picomolar concentrations
"margatoxin (TIINVKCTSPKQCLPPCKAQFGQSAGAKCMNGKCKCYPH; UniProt P40755 1-39, looked up) [MgTx]",IC50,T lymphocytes,~5 nM
same,potency of native toxin on KV1.3,KV1.3,30−100 pM
same,block of KV1.3 channels,KV1.3,picomolar concentrations
same,inhibition of KV1.3,human KV1.3 channel,potently inhibit KV1.3
same,block of KV1.1 channels,KV1.1,picomolar concentrations
